In the Kinase Knowledgebase extract (Sharma et al. 2016):

Experiments:
[1] = molecular target: MAPK14 (UniProt Q16539); experiment: MAPK14 Binding Inhibition
[2] = molecular target: MAPK14 (UniProt Q16539); experiment: MAPK14 Kinase Inhibition

Sequence of MAPK14 (Q16539 whole entry, looked up): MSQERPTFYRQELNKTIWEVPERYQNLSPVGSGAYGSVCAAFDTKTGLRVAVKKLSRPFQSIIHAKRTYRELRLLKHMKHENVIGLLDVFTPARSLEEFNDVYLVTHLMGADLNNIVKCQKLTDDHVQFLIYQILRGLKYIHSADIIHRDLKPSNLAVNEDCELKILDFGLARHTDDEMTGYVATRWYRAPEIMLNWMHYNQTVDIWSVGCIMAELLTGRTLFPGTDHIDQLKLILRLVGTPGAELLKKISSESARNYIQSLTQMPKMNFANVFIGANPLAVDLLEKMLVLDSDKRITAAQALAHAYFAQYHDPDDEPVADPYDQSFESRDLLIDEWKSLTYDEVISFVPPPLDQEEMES

Structure (SMILES) | inhibition [1] [µM] | IC50 [2] [µM]
CN1CCC(n2cnc(-c3ccc(F)cc3)c2-c2ccnc(NCc3cccc4c3OCO4)n2)CC1 | < 50 | –
Fc1ccc(-c2ncn(C3CCNCC3)c2-c2ccnc(Nc3ccccc3F)n2)cc1 | – | < 50
Fc1ccc(-c2ncn(C3CCNCC3)c2-c2ccnc(Nc3ccccc3)c2)cc1 | < 50 | –
Fc1ccc(-c2ncn(C3CCNCC3)c2-c2ccnc(Nc3ccc(F)c(F)c3)n2)cc1 | – | < 50
Oc1ccc(Nc2nccc(-c3c(-c4ccc(F)cc4)ncn3C3CCNCC3)n2)cc1 | – | < 50
CN1CCC(n2cnc(-c3ccc(F)cc3)c2-c2ccnc(NCCc3c[nH]c4ccc(Cl)cc34)n2)CC1 | < 50 | –
CC1(C)CC(n2cnc(-c3ccc(F)cc3)c2-c2ccnc(NCCO)n2)CC(C)(C)N1 | < 50 | –
CN1CCC(n2cnc(-c3ccc(F)cc3)c2-c2ccnc(NCc3cccc(Cl)c3)n2)CC1 | < 50 | –
O[C@H]1CC[C@H](n2cnc(-c3ccc(F)cc3)c2-c2ccnc(Nc3ccccc3)n2)CC1 | < 50 | –
CCOC(=O)N1CCC(n2cnc(-c3ccc(F)cc3)c2-c2ccnc(Nc3ccc(OCc4ccccc4)cc3)n2)CC1 | – | < 50
CN1CCC(n2cnc(-c3ccc(F)cc3)c2-c2ccnc(NCCCN3CCOCC3)n2)CC1 | < 50 | –
COc1ccccc1Nc1nccc(-c2c(-c3ccc(F)cc3)ncn2C2CCNCC2)n1 | – | < 50
Fc1ccc(-c2ncn(C3CCNCC3)c2-c2ccnc(Nc3cccc(C(F)(F)F)c3)n2)cc1 | – | < 50
C[S+]([O-])c1ccc(-c2ncn(C3CCNCC3)c2-c2ccnc(Nc3ccccc3)n2)cc1 (configuration not stated) | – | < 50
CN1CCC(n2cnc(-c3ccc(F)cc3)c2-c2ccnc(NC3CC(C)(C)NC(C)(C)C3)n2)CC1 | < 50 | –
CN1CCC(n2cnc(-c3ccc(F)cc3)c2-c2ccnc(NC3CCSCC3)n2)CC1 | < 50 | –
CN1CCC(n2cnc(-c3ccc(F)cc3)c2-c2ccnc(NCc3cccc4ccccc34)n2)CC1 | < 50 | –
COc1cccc(Nc2nccc(-c3c(-c4ccc(F)cc4)ncn3C3CCNCC3)n2)c1 | – | < 50
O=C1CCC(n2cnc(-c3ccc(F)cc3)c2-c2ccnc(Nc3ccccc3)n2)CC1 | < 50 | –

Structure (SMILES) | inhibition [1] [µM] | IC50 [2] [µM]
Fc1ccc(-c2ncn(C3CCNCC3)c2-c2ccnc(NCCCn3ccnc3)n2)cc1 | < 50 | –
CC1(C)CC(n2cnc(-c3ccc(F)cc3)c2-c2ccnc(Nc3ccccc3)n2)CC(C)(C)N1 | < 50 | –
CN1CCC(n2cnc(-c3ccc(F)cc3)c2-c2ccnc(NC3CCN(Cc4ccccc4)CC3)n2)CC1 | < 50 | –
CN1CCC(n2cnc(-c3ccc(F)cc3)c2-c2ccnc(Nc3ccccc3)n2)CC1 | < 50 | –
NCCNc1nccc(-c2c(-c3ccc(F)cc3)ncn2C2CCNCC2)n1 | < 50 | –
CN1CCC(n2cnc(-c3ccc(F)cc3)c2-c2ccnc(NCc3ccccc3)n2)CC1 | < 50 | –
Fc1ccc(-c2ncn(C3CCNCC3)c2-c2ccnc(Nc3cccc(F)c3)n2)cc1 | – | < 50
COc1ccc(Nc2nccc(-c3c(-c4ccc(F)cc4)ncn3C3CCNCC3)n2)cc1 | – | < 50
CCOC(=O)N1CCC(n2cnc(-c3ccc(F)cc3)c2-c2ccnc(Nc3cccc(OCc4ccccc4)c3)n2)CC1 | – | < 50
CCOC(=O)N1CCC(Nc2nccc(-c3c(-c4ccc(F)cc4)ncn3C3CCN(C)CC3)n2)CC1 | < 50 | –
Fc1ccc(-c2ncn(C3CCNCC3)c2-c2ccnc(Nc3cccc(Br)c3)n2)cc1 | < 50 | –
Fc1ccc(Nc2nccc(-c3c(-c4ccc(F)cc4)ncn3C3CCNCC3)n2)cc1 | – | < 50
Oc1cccc(Nc2nccc(-c3c(-c4ccc(F)cc4)ncn3C3CCNCC3)n2)c1 | – | < 50
CN1CCC(n2cnc(-c3ccc(F)cc3)c2-c2ccnc(NC3CCNCC3)n2)CC1 | < 50 | –
CN1CCC(n2cnc(-c3ccc(F)cc3)c2-c2ccnc(NCCO)n2)CC1 | < 50 | –
CCOCCCNc1nccc(-c2c(-c3ccc(F)cc3)ncn2C2CCNCC2)n1 | < 50 | –
Fc1ccc(-c2ncn(C3CCNCC3)c2-c2ccnc(Nc3ccccc3)n2)cc1 | < 50 | –
CSc1ccc(-c2ncn(C3CCNCC3)c2-c2ccnc(Nc3ccccc3)n2)cc1 | – | < 50
